Source: patent US7276502B2, “Thiazoles useful as inhibitors of protein kinases” (Vertex Pharmaceuticals Incorporated, priority 2003, dated 2007)
Where two headings read alike, the source gives them in different places.

Assays:
SYK = SYK (Homo sapiens, UniProt P43405); test: SYK inhibition assay (standard coupled enzyme assay); format: biochemical
Procedure: Reactions were carried out in 100 mM HEPES (pH 7.5), 10 mM MgCl2, 25 mM NaCl, 1 mM DTT and 1.5% DMSO. Final substrate concentrations in the assay were 200 μM ATP (Sigma chemical Co.) and 4 μM poly Gly-Tyr peptide (Sigma Chemical Co.). Assays were carried out at 30° C. and 200 nM SYK. Final concentrations of the components of the coupled enzyme system were 2.5 mM phosphoenolpyruvate, 300 μM NADH, 30 μg/ml pyruvate kinase and 10 μg/ml lactate dehydrogenase.
An assay stock buffer solution was prepared containing all of the reagents listed above, with the exception of SYK, DTT, and the test compound of interest of the present invention. 56 μl of the test reaction was placed in a 96 well plate followed by the addition of 1 μl of 2 mM DMSO stock containing the test compound of the present invnetion (final compound concentration 30 μM).

ZAP-70 = biological target: T1, ZAP-70 (Homo sapiens, UniProt P43403); test: ZAP-70 inhibition assay (standard coupled enzyme assay); format: biochemical; conditions: 100 μM ATP, 20 μM poly-4EY peptide, 30° C., 60 nM ZAP-70
T1 sequence (P43403 1-619): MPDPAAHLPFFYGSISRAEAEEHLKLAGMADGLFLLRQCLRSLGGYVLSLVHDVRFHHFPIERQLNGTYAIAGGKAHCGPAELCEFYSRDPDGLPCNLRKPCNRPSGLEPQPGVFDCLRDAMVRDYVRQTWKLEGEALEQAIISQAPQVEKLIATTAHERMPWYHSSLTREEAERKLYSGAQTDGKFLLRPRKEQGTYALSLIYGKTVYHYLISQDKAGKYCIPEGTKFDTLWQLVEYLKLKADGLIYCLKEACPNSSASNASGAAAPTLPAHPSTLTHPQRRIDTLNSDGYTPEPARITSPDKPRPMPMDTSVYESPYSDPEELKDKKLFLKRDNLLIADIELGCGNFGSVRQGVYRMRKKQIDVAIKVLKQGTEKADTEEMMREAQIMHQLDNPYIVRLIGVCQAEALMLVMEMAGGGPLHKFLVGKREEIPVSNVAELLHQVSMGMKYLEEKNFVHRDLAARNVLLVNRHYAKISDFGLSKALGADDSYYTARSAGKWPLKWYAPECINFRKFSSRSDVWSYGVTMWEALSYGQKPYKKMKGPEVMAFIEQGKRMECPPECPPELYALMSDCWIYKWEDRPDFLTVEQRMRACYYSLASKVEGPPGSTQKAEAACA
Procedure: Compounds were screened for their ability to inhibit ZAP-70 using a standard coupled enzyme assay (Fox et al., Protein Sci. 1998, 7, 2249). Assays were carried out in a mixture of 100 mM HEPES (pH 7.5), 10 mM MgCl2, 25 mM NaCl, 2 mM DTT and 3% DMSO. Final substrate concentrations in the assay were 100 μM ATP (Sigma Chemicals) and 20 μM peptide (poly-4EY, Sigma Chemicals). Assays were carried out at 30° C. and 60 nM ZAP-70. Final concentrations of the components of the coupled enzyme system were 2.5 mM phosphoenolpyruvate, 300 μM NADH, 30 μg/ml pyruvate kinase and 10 μg/ml lactate dehydrogenase.
An assay stock buffer solution was prepared containing all of the reagents listed above, with the exception of ZAP-70 and the test compound of interest of the present invention. 55 μl of the stock solution was placed in a 96 well plate followed by addition of 2 μl of DMSO stock containing serial dilutions of the test compound of the present invention (typically starting from a final concentration of 15 μM). The plate was preincubated for 10 minutes at 30° C. and the reaction initiated by addition of 10 μl of enzyme (final concentration 60 nM). Initial reaction rates were determined with a Molecular Devices SpectraMax Plus plate reader over a 15 minute time course. Ki data was calculated from non-linear regression analysis using the Prism software package (GraphPad Prism version 3.0a for Macintosh, GraphPad Software, San Diego Calif., USA).

[1] = coupled enzyme assay, 200 μM ATP, 4 μM poly Gly-Tyr peptide, 30° C., read-out: Ki (SYK)

Row | SMILES | Ki (SYK; [1]) [µM] | Ki (ZAP-70) [µM] | Ki (SYK) [µM]
1 | Cc1cnc(-c2ccnc(Nc3ccc4[nH]c(C(F)(F)F)nc4c3)n2)s1 [Example I-1] | ≤ 5 | ≤ 5 | 
2 | COc1ccc(Nc2nccc(-c3ncc(C)s3)n2)cc1OC [Example I-2] | ≤ 5 | ≤ 5 | 
3 | Cc1cnc(-c2ccnc(Nc3ccc4c(c3)OCCCO4)n2)s1 [Example I-4] | ≤ 5 | ≤ 5 | 
4 | COc1ccc(Nc2nccc(-c3ncc(C)s3)n2)cc1F [Example I-5] | ≤ 5 | ≤ 5 | 
5 | Cc1cnc(-c2ccnc(Nc3ccc4cn[nH]c4c3)n2)s1 [Example I-9] | ≤ 5 | ≤ 5 | 
6 | Cc1cnc(-c2ccnc(Nc3cccc(C(N)=O)c3)n2)s1 [Example I-15] | ≤ 5 | ≤ 5 | 
7 | COc1ccc(Nc2nccc(-c3ncc(C)s3)n2)cc1-c1ccccc1 [Example I-16] | ≤ 5 | ≤ 5 | 
8 | COc1ccc(Nc2nccc(-c3ncc(C)s3)n2)cc1O [Example I-17] | ≤ 5 | ≤ 5 | 
9 | Cc1cc2cc(Nc3nccc(-c4ncc(C)s4)n3)ccc2[nH]1 [Example I-18] | ≤ 5 | ≤ 5 | 
10 | COc1cc(Nc2nccc(-c3ncc(C)s3)n2)ccc1-c1ccccc1 [Example I-19] | ≤ 5 | ≤ 5 | 
11 | Cc1cnc(-c2ccnc(Nc3ccc4c(c3)CCN4S(C)(=O)=O)n2)s1 [Example I-20] | ≤ 5 | ≤ 5 | 
12 | Cc1cnc(-c2ccnc(Nc3ccc(-n4cncn4)cc3)n2)s1 [Example I-23] | ≤ 5 | ≤ 5 | 
13 | CCn1c2ccccc2c2cc(Nc3nccc(-c4ncc(C)s4)n3)ccc21 [Example I-26] | ≤ 5 | ≤ 5 | 
14 | COc1cccc(Nc2nccc(-c3ncc(C)s3)n2)c1 [Example I-27] | ≤ 5 | ≤ 5 | 
15 | COc1ccc(Nc2nccc(-c3ncc(C)s3)n2)cc1 [Example I-28] | ≤ 5 | ≤ 5 | 
16 | Cc1cnc(-c2ccnc(Nc3ccc(Cl)c(C)c3)n2)s1 [Example I-29] | ≤ 5 | ≤ 5 | 
17 | CC(=O)c1cccc(Nc2nccc(-c3ncc(C)s3)n2)c1 [Example I-30] | ≤ 5 | ≤ 5 | 
18 | Cc1cnc(-c2ccnc(Nc3ccc4[nH]ccc4c3)n2)s1 [Example I-31] | ≤ 5 | ≤ 5 | 
19 | Cc1cnc(-c2ccnc(Nc3cccc(N)c3)n2)s1 [Example I-32] | ≤ 5 | ≤ 5 | 
20 | CCOP(=O)(Cc1ccc(Nc2nccc(-c3ncc(C)s3)n2)cc1)OCC [Example I-33] |  |  | ≤ 5

Row | SMILES | Ki (SYK; [1]) [µM] | Ki (ZAP-70) [µM] | Ki (SYK) [µM]
21 | Cc1cnc(-c2ccnc(Nc3ccc4c(C)cc(=O)oc4c3)n2)s1 [Example I-34] | ≤ 5 | ≤ 5 | 
22 | CC(=O)Nc1ccc(Nc2nccc(-c3ncc(C)s3)n2)cc1C [Example I-35] | ≤ 5 | ≤ 5 | 
23 | Cc1cnc(-c2ccnc(Nc3ccc4c(c3)CC(=O)N4)n2)s1 [Example I-36] | ≤ 5 | ≤ 5 | 
24 | Cc1cnc(-c2ccnc(Nc3cccc(OCc4ccccc4)c3)n2)s1 [Example I-37] | ≤ 5 | ≤ 5 | 
25 | Cc1cc(C)cc(Nc2nccc(-c3ncc(C)s3)n2)c1 [Example I-41] |  | ≤ 5 | ≤ 5
26 | Cc1cc(C)cc(Nc2nccc(-c3nc(Br)cs3)n2)c1 [Example I-42] | ≤ 5 | ≤ 5 | 
27 | Cc1cc(C)cc(Nc2nccc(-c3ncc(CO)s3)n2)c1 [Example I-43] |  | ≤ 5 | ≤ 5
28 | Cc1cc(C)cc(Nc2nccc(-c3ncc(CN4CCCCC4)s3)n2)c1 [Example I-46] | ≤ 5 | ≤ 5 | 
29 | CCN1CCN(Cc2cnc(-c3ccnc(Nc4cc(C)cc(C)c4)n3)s2)CC1 [Example I-47] | ≤ 5 | ≤ 5 | 
30 | Cc1cc(C)cc(Nc2nccc(-c3ncc(CN4CCOCC4)s3)n2)c1 [Example I-48] | ≤ 5 | ≤ 5 | 
31 | Cc1cnc(-c2ccnc(Nc3ccccc3)n2)s1 [Example I-49] | ≤ 5 | ≤ 5 | 
32 | Cc1cnc(-c2ccnc(Nc3ccc4c(c3)CCC4)n2)s1 [Example I-50] | ≤ 5 | ≤ 5 | 
33 | Cc1cc(C)cc(Nc2nccc(-c3nc(CN4CCC(O)C4)cs3)n2)c1 (centres unmarked) [Example I-58] | ≤ 5 |  | 
34 | Cc1cc(C)cc(Nc2nccc(-c3nc(CBr)cs3)n2)c1 [Example I-64] | ≤ 5 | ≤ 5 | 
35 | COCc1csc(-c2ccnc(Nc3cc(C)cc(C)c3)n2)n1 [Example I-66] | ≤ 5 | ≤ 5 | 
36 | Cc1cc(C)cc(Nc2nccc(-c3ncc(Br)s3)n2)c1 [Example I-71] | ≤ 5 | ≤ 5 | 
37 | OCc1csc(-c2ccnc(Nc3cccc(OCc4ccccc4)c3)n2)n1 [Example I-73] | ≤ 5 | ≤ 5 | 
38 | Cc1cnc(-c2ccnc(Nc3ccc4c(c3)C(=O)OC4)n2)s1 [Example I-126] | ≤ 5 |  | 
39 | Cc1cc(Nc2nccc(-c3ncc(C)s3)n2)[nH]n1 [Example I-151] | ≤ 5 |  | 
40 | CC(=O)Nc1ccc(Nc2nccc(-c3ncc(C)s3)n2)cc1 [Example I-157] | ≤ 5 |  | 

Continued, values first:

Row | Ki (SYK; [1]) [µM] | Ki (ZAP-70) [µM] | Ki (SYK) [µM] | SMILES
41 | ≤ 5 | ≤ 5 |  | Cc1cnc(-c2ccnc(Nc3cccc(S(=O)(=O)c4cccc(N)c4)c3)n2)s1 [Example I-6]
42 | ≤ 5 | ≤ 5 |  | Cc1cnc(-c2ccnc(Nc3ccc(N4CCN(Cc5ccccc5)CC4)cc3)n2)s1 [Example I-7]
43 | ≤ 5 | ≤ 5 |  | Cc1cnc(-c2ccnc(Nc3ccc(C)c(Br)c3)n2)s1 [Example I-8]
44 | ≤ 5 | ≤ 5 |  | CCN(CC)Cc1cc(Nc2nccc(-c3ncc(C)s3)n2)ccc1O [Example I-10]
45 | ≤ 5 | ≤ 5 |  | Cc1cnc(-c2ccnc(Nc3ccc(Nc4ccccc4)cc3)n2)s1 [Example I-12]
46 | ≤ 5 | ≤ 5 |  | CCOc1ccc(Nc2nccc(-c3ncc(C)s3)n2)cc1 [Example I-14]
47 | ≤ 5 | ≤ 5 |  | COCc1cc(=O)oc2cc(Nc3nccc(-c4ncc(C)s4)n3)ccc12 [Example I-22]
48 | ≤ 5 | ≤ 5 |  | Cc1cnc(-c2ccnc(Nc3cccc(CC#N)c3)n2)s1 [Example I-38]
49 | ≤ 5 | ≤ 5 |  | Cc1cc(C)cc(Nc2nccc(-c3ncc(CN(C)C)s3)n2)c1 [Example I-44]
50 | ≤ 5 | ≤ 5 |  | CCN(CC)CCCNCc1cnc(-c2ccnc(Nc3cc(C)cc(C)c3)n2)s1 [Example I-45]
51 | ≤ 5 | ≤ 5 |  | Cc1cnc(-c2ccnc(Nc3cc(Cl)cc(Cl)c3)n2)s1 [Example I-51]
52 | ≤ 5 | ≤ 5 |  | Cc1cc(C)cc(Nc2nccc(-c3nc4ccccc4s3)n2)c1 [Example I-63]
53 | ≤ 5 |  |  | Cc1cc(C)cc(Nc2nccc(-c3nc(CNCC(=O)OC(C)(C)C)cs3)n2)c1 [Example I-67]
54 | ≤ 5 | ≤ 5 |  | Cc1cc(C)cc(Nc2nccc(-c3nc(C)c(C)s3)n2)c1 [Example I-70]
55 | ≤ 5 | ≤ 5 |  | CC(=O)OCc1cnc(-c2ccnc(Nc3cc(C)cc(C)c3)n2)s1 [Example I-72]
56 | ≤ 5 | ≤ 5 |  | Cc1cc(C)cc(Nc2nccc(-c3ncc(N4CCCCC4)s3)n2)c1 [Example I-74]
57 | ≤ 5 | ≤ 5 |  | CCc1cnc(-c2ccnc(Nc3cc(C)cc(C)c3)n2)s1 [Example I-75]
58 | ≤ 5 | ≤ 5 |  | Cc1cc(C)cc(Nc2nccc(-c3nc(CN)cs3)n2)c1 [Example I-76]
